Results: patent publication US7879814B2, “Methods and therapeutic compositions in the treatment of advanced cancer” (priority 2003, dated 2011)
Where two headings read alike, the source gives them in different places.

What was measured:
[1] = cited from earlier work; for whole blood ATP concentration higher than pretreatment value (average): 24 hours of infusion
[2] = system: patients with advanced malignancies (solid tumors); assay: Phase I study of ATP by 8 hour intravenous infusion once weekly, out-patient (DMS #D0005): safety, tolerability, clinical efficacy; assay type: in vivo, human
Procedure: Adenosine 5′-triphosphate (ATP) is provided as a sterile solution in single use vials. […] Storage of the clinical solutions is at controlled refrigerated temperature (2-8° C.). […] The concentration of the final sterile solution is 8 mg/ml and is administered by continuous intravenous infusions using an Ivac or similar infusion device through venous access in a peripheral vein. If venous access is a problem, either a Hickman catheter or its equivalent or an Infusaport or its equivalent, are inserted to provide vascular access. […] All follow-up care is administered in hospital outpatient department or at the patient's home or clinic.
Title of the Study: “A Phase I Study of the Safety and Pharmacokinetics of Adenosine 5′-Triphosphate (ATP) When Administered by Intravenous Infusion on a Multiple Weekly Dose Schedule to Patients with Advanced Malignancies (Solid Tumors)”.
Nine qualified patients have been enrolled in the study as of Jan. 1, 2002; seven of which received the first 3 cycles of the study drug and are therefore evaluable for the primary endpoints. Two of the seven evaluable patients had advanced prostate cancer with bone metastases and one each had advanced mesothelioma, metastatic breast cancer, metastatic melanoma, metastatic colon cancer and renal cell carcinoma.

[3] = system: men with advanced, non-resectable cancer; settings: cited from earlier work
[4] = system: stage IIIB/IV non-small cell lung cancer patients; settings: cited from earlier work
[5] = Pharmacokinetics of ATP on weeks (cycles) 1, 3 and 8 of the Phase I study; assay type: in vivo, human
Text: Two of the seven evaluable patients had advanced prostate cancer with bone metastases and one each had advanced mesothelioma, metastatic breast cancer, metastatic melanoma, metastatic colon cancer and renal cell carcinoma.

[6] = system: refractory stage IIIB/IV non-small cell lung cancer patients; settings: cited from earlier work
[7] = week 1 pre-dose to week 13 follow-up
[8] = 50, 75 or 100 mcg/kg/min, 96 hr infusion once every 4 weeks
[9] = 50 or 65 mcg/kg/min, 96 hours once every 4 weeks, 15 patients
[10] = 50 or 65 mcg/kg/min, 96 hours once every 4 weeks
[11] = 30-hours infusions, 20 up to 75 mcg/kg/min

## Nc1ncnc2c1ncn2[C@@H]1O[C@H](COP(=O)(O)OP(=O)(O)OP(=O)(O)O)[C@@H](O)[C@H]1O [ATP, Adenosine 5′-triphosphate]
[1]; 50 mcg/kg/min
  whole blood ATP concentration higher than pretreatment value (average): 63%
[1]; 75 mcg/kg/min
  whole blood ATP concentration higher than pretreatment value (average): 67%
[1]; 100 mcg/kg/min
  whole blood ATP concentration higher than pretreatment value (average): 113%
[1]; interval between 24 and 96 hours of the infusion
  course of blood ATP concentrations: relatively constant or slightly declined
[2]; 8 hour iv infusion once weekly, up to 100 mcg/kg/min
  grade 2 cardiac ischemia or grades 3 or 4 toxicity: No grade 2 cardiac ischemia or grades 3 or 4 toxicity have been observed
[2]; all patients, screening to week 10 (follow-up), return to screening baseline at week 13
  appetite loss: Decreases
[2]; all patients, week 1 (pre-dose) to week 13 (follow-up)
  SGOT, SGPT and serum LDH: Consistent decreases
[2]; continuous 8 hours iv infusion once weekly for eight weeks, seven of nine patients (the seven evaluable)
  maximum allowable dose tolerated: 100 µg/kg/min
[2]; during the study, several patients
  appetite and energy (subjective patient comments): improved appetite and energy
[2]; patient 506
  tolerability in terminal patients: well tolerated
[2]; screening (week <1) to follow-up (week 10), decline at week 13 follow-up
  Global Health Status of the QOL EORTC QLQ-C30: Increases
[2]; screening (week <1) to week 8 (last infusion cycle)
  Skeletal Muscle Strength (voluntary): Small increases
[2]; [7]
  Kamofsky Performance Status: Small increases
  body weight: Stabilization
[3]; [8]
  share of all adverse events that were grade 1 or 2 (mild or moderate): 79%
  share of all adverse events that were grade 3 or 4 (severe or life-threatening): 21%
[3]; 96-hours infusions, patients with advanced cancers
  maximum tolerated dose: 50 µg/kg/min
[3]; 96 hr infusions
  events of grade 3 anxiety: one
  events of grade 3 headache: 1 event
  grade 3 or 4 events of chest pain: 5 events
  grade 3 or 4 events of dizziness: 1 event
  grade 3 or 4 events of dyspnea: 6 events
  grade 3 or 4 events of hypotension: 1 event
  grade 3 or 4 events of hypoxia: 2 events
  grade 3 or 4 events of nausia/emesis: 2 events
[4]; [9]
  patients reporting severe (grade 3) adverse effects: Six
  patients with life-threatening (grade 4) dyspnea: two
[4]; [10]
  disease status after treatment: the majority of patients exhibited stable disease
  hematologic, renal, hepatic, or gastrointestinal toxicity: No significant
  tumor shrinking: no significant tumor shrinking was observed
[4]; non-small cell lung cancer patients
  effects on weight gain, performance status and overall survival: beneficial effects
[5]; at 24 hours
  total blood ATP pools after infusion: decline to baseline (time 0)
[5]; time 0 to 8 hours
  average increases in Initial ATP Release Rates (from Red Blood Cells): 200-400%
[5]; time 0 to 8 hours (end of the infusions)
  increases in total blood ATP pools (red blood cell pools): 70-90%
[6]; [11]
  adverse events of grade 1 (mild): 81
  adverse events of grade 2 (moderate): 5
  adverse events of grade 3 (severe): none
  adverse events of grade 4 (life threatening): 5
[6]; 30-hours infusions
  electrocardiograms in patients with chest discomfort: did not exhibit changes suggestive of myocardial ischemia
[6]; ATP plus best supportive care vs best supportive care only
  effects on body weight, voluntary muscle strength and Quality of Life domains: beneficial effects
[6]; after lowering the rate of ATP infusion
  resolution of side effects: resolved within minutes
